“And” between values parts separate entries of the source, which are not always exact repeats. Equal values may be shown once. Read-outs that look alike come from different tables or passages of the source.
Key:
[1] = system: Plasmodium falciparum; assay: In vitro drug screening model against Plasmodium falciparum (drug sensitivity assay, Malstat LDH read-out); type: cell-based; details: for IC50: Plasmodium falciparum; for score: score in brackets after the IC50, scale not defined
Description: Malaria: In Vitro Drug Screening Model Against Plasmodium falciparum
Two strains of P. falciparum were used: 1/GHA strain (P. falGHA), derived from a Ghanese patient and chloroquine sensitive and 2/W-2 strain (P.falW2) from CDC/Indochina III and resistant to chloroquine, quinine, pyrimethamine, but susceptible to mefloquine. The strains were maintained in RPMI-1640 medium supplemented with 0.37 mM hypoxanthine, 25 mM Hepes, 25 mM NaHCO3, and 10% O+ human serum together with 2-4% washed human O+ erythrocytes (Adaptation of the procedures described by Trager, W.; Jensen J. B. Science 1976, 193, 673-677). All cultures and assays were conducted at 37° C. under an atmosphere of 4% CO2, 3% O2 and 93% N2.
Compound stock solutions were prepared in 100% DMSO at 20 mM or mg/ml (Concentrations are standard expressed in molar concentrations). The compounds were serially pre-diluted (2-fold or 4-fold) in DMSO followed by a further (intermediate) dilution in demineralized water to assure a final in-test DMSO concentration of <1%.
Assays were performed in sterile 96-well microtiter plates, each well containing 10 μl of the watery compound dilutions together with 190 μl of the malaria parasite inoculum (1% parasitaemia, 2% HCT). Parasite growth was compared to untreated-infected (100% growth) and uninfected-controls (0% growth). After 72 h incubation at 37° C., plates were frozen at −20° C. After thawing, 20 μl of each well was transferred into another plate together with 100 μl Malstat reagent (Lactate dehydrogenase (LDH)-test, according to Makler et al.: Am. J. Trop Med. Hyg, 48, 7339-741, 1993) and 20 μl of a 1/1 mixture of PES (phenazine ethosulfat, 0.1 mg/ml) and NBT (NitroBlue Tetrazolium Grade III, 2 mg/ml). The plates were kept out of light for 2 hours and change in color was measured spectrophotometrically at 655 nm. The results were expressed as % reduction in parasitaemia compared to control wells. For each compound, an IC50 was calculated.
The GHA strain was used. Compounds were tested at 5 concentrations (64-16-4-1 and 0.25 μM or μg/ml). […] Some of the compounds were evaluated in a secondary screening.
Additional strains (GHA, W2, D6, NF54) were included and the IC50-values were determined using an extended dose range (2-fold compound dilutions). Artesunate and chloroquine were included as reference drugs.

[2] = system: other strains of parasites; assay: Activity against other strains of parasites (selectivity); type: cell-based
[3] = Table 2, P. falciparum, strain not given, 72 h incubation, read-out: IC50

Compound	melting point [°C]	IC50 [1, 3] [µg/mL]	score ([1]; Table 2)	IC50 ([1]; 72 h)	activity against some other strains of parasites (selectivity compared to chloroquine) [2]
c1ccc2[nH]c(-c3ccc(OCCCCCCOc4ccc(-c5nc6ccccc6[nH]5)cc4)cc3)nc2c1 [Compound 4, 2,2′-[1,6-hexanediylbis(oxy-1,4-phenylene)]bis-1H-benzimidazole]	> 300				
CCN(CC)CCCC(C)Nc1ccnc2cc(Cl)ccc12 (stereo not drawn) [Chloroquine, chloroquine, reference compound]				50 nM and 0.04 µg/mL	
c1ccc2[nH]c(-c3ccc(OCCCOc4ccc(-c5nc6ccccc6[nH]5)cc4)cc3)nc2c1 [Compound 1, 2,2′-[1,3-propanediylbis(oxy-1,4-phenylene)]bis-1H-benzimidazole]	> 300	16.6	1		
C[C@H]1[C@H](OC(=O)CCC(=O)O)O[C@@H]2O[C@@]3(C)CC[C@H]4[C@H](C)CC[C@@H]1[C@@]24OO3 [Artesunate, reference compound]				5 nM	
c1ccc2[nH]c(-c3ccc(OCCCCCOc4ccc(-c5nc6ccccc6[nH]5)cc4)cc3)nc2c1 [Compound 3, 2,2′-[1,5-pentanediylbis(oxy-1,4-phenylene)]bis-1H-benzimidazole]	> 300	0.49	3		not active
c1ccc2[nH]c(-c3ccc(OCCCCOc4ccc(-c5nc6ccccc6[nH]5)cc4)cc3)nc2c1 [Compound 2, 2,2′-[1,4-butanediylbis(oxy-1,4-phenylene)]bis-1H-benzimidazole]	> 300				

More lines, main results first:

melting point [°C]	IC50 [1, 3] [µg/mL]	Compound	score ([1]; Table 2)	IC50 ([1]; 72 h)	activity against some other strains of parasites (selectivity compared to chloroquine) [2]
240 to 243	3.91	c1cc(OCCCCCOc2cccc(-c3nc4ccccc4[nH]3)c2)cc(-c2nc3ccccc3[nH]2)c1 [Compound 6, 2,2′-[1,5-pentanediylbis(oxy-1,3-phenylene)]bis-1H-benzimidazole]	2		
298 to 301		c1ccc2[nH]c(-c3ccc(OCCCCCCCOc4ccc(-c5nc6ccccc6[nH]5)cc4)cc3)nc2c1 [Compound 5, 2,2′-[1,7-heptanediylbis(oxy-1,4-phenylene)]bis-1H-benzimidazole]			
190 to 193	8.31	c1ccc(-c2nc3ccccc3[nH]2)c(OCCCCCOc2ccccc2-c2nc3ccccc3[nH]2)c1 [Compound 7, 2,2′-[1,5-pentanediylbis(oxy-1,2-phenylene)]bis-1H-benzimidazole]	2		

Source: patent US20100160402A1, “Bisbenzimidazoles as antimalarial agents” (priority 2007, published 2010)
